Results: patent publication US4649911A, “Small particle aerosol generator for treatment of respiratory disease including the lungs” (Baylor College of Medicine, priority 1986, dated 1987)

Conditions: human, in vivo
Method: The following hematologic studies were performed at admission and at discharge from the hospital: hematocrit, red cell count, white cell count, differential white cell count, hemoglobin concentration and reticulocyte count. Biochemical tests as follows were performed on admission, at discharge, and one month later: indirect bilirubin, direct bilirubin, total bilirubin, blood urea nitrogen, creatinine, glucose, calcium, phosphorus, albumin, total protein, alkaline phcsphatase, serum aspartate transminase (ASP), and serum alanine transaminase (ALT), lactic dehydrogenase (LDH), creatine phosphokinase (CPK), uric acid, and aldolase.
Clinical chemical tests were performed on 14 treated and 17 control patients at admission; at discharge there were 13 treated and 15 controls, and at one month there were 11 and 17 sets of tests performed.

In the case of `NC(=O)c1ncn([C@@H]2O[C@H](CO)[C@@H](O)[C@H]2O)n1` [ribavirin], the absolute lymphocyte count is reported as “more than doubled”.
